Records with an inconclusive call do not appear. Calls of active or inactive are those of the source. How the calls were made is not given here.

One assay concerns the target Tyrosine-protein phosphatase YopH [Yersinia enterocolitica]. Put plainly: potency against Yersinia YopH phosphatase – biochemical, 10-point dose range, dose response (AID 1261). As to conditions: YopH phosphatase enzymatic assay, IC50, 3 runs.
Take `CC1=C(C(=O)OCC(C)C)C2(O)C(=O)c3ccccc3C2(O)N1` (stereo not given): the IC50 was > 50 µM (inactive).

`CCN(CC)c1ccc(/C=N/Nc2ccccc2)c(O)c1`: the IC50 is > 50 µM (inactive).

For `CCOC(=O)C1=C(C)NC2(O)c3ccccc3C(=O)C12O` (stereo not given), the IC50 was > 50 µM (inactive).

On to `CCOC(=O)/C(N=Nc1ccc(F)cc1)=C(/O)c1ccc([N+](=O)[O-])cc1`, for which the IC50 was > 50 µM (inactive).

`C=CCOC(=O)C1=C(C)NC2(O)c3ccccc3C(=O)C12O` (stereo not given): the IC50 is > 50 µM (inactive).

Take `COc1ccc(NC2=C(NCCO)C(=O)c3ccccc3C2=O)cc1`: the IC50 is > 50 µM (inactive).

On to `CCN(CC)c1ccc(/C=N/Nc2cccc(C)c2)c(O)c1`, for which the IC50 is > 50 µM (inactive).

Turning to `Cc1ccc(NC2=C(NCCO)C(=O)c3ccccc3C2=O)cc1`, the IC50 was > 50 µM (inactive).

As to `CSc1nsc(/C=C/Nc2ccc(Cl)cc2)c1C#N`, the IC50 was > 50 µM (inactive).

Regarding `COc1cc(C2C(C(=O)OC(C)C)=C(C)Nc3[nH]c(=O)[nH]c(=O)c32)ccc1O` (stereo not given), the IC50 was > 50 µM (inactive).

In the case of `CCCCOC(=O)C1=C(C)NC2(O)c3ccccc3C(=O)C12O` (stereo not given), the IC50 was > 50 µM (inactive).

The same assay, now with this note: YopH phosphatase enzymatic assay, IC50, 3 runs; inhibition; at 50 µM; stronger effect = higher value.
As for `CCOC(=O)Oc1ccc2oc(=O)cc(C)c2c1`, the inhibition was -13.7%.

With `O=c1cc(CN2CCN(c3ccccc3F)CC2)c2cc(O)c(-c3ccccc3)cc2o1`, the inhibition worked out at 4.58%.

As for `O=C(NN=c1c(=O)c2ccccc2c1=O)c1ccccc1`, the inhibition was -14.5%.

On to `Cc1c(Br)cc(C(=O)OC2CCN(C)CC2)c(C)c1C`, for which the inhibition turned out to be 0.211%.

Take `CCc1ccc(S(=O)(=O)/N=C2/C=C(Sc3ncn[nH]3)C(=O)c3ccccc32)cc1`: the inhibition was determined as 17.2%.

`CC1=C(C(=O)OCC(C)C)C2(O)C(=O)c3ccccc3C2(O)N1` (stereo not given): the inhibition is 31.7%.

On to `CCN1CCC2(CC1)N=C(c1ccc(F)cc1)C(=S)N2C(=O)c1ccc(C)cc1`, for which the inhibition stood at 28.6%.

In the case of `CCOC(=O)c1ccc(NS(=O)(=O)c2cc(-c3nnnn3C(C)C)ccc2OC)cc1`, the inhibition is -7.2%.

For the compound `COC(=O)CSc1nnc(CNC(=O)c2cccc(C)c2)n1-c1ccccc1OC`, the inhibition was -14.7%.

For the compound `O=C(/C=C/c1ccc([N+](=O)[O-])cc1)OCC(=O)N1c2ccccc2Sc2ccccc21`, the inhibition was -1.56%.

As to `Cc1ccc(N2C(=O)[C@@H]3[C@H](C2=O)C2c4ccccc4C=CN2[C@@H]3C(=O)c2ccco2)cc1` (stereo not given in full), the inhibition was -1.17%.

In the case of `CCO/C=C1\C(=O)N(c2ccccc2)C(=O)c2ccccc21`, the inhibition stood at 39.1%.

Regarding `CC(=O)Nc1ccc(-c2nnc(SCC(=O)n3c4c(c5ccccc53)CCCC4)n2C)cc1`, the inhibition is -7.8%.

`Cc1ccc(NC2=C(N3CCCCC3)C(=O)c3ccccc3C2=O)cc1`: the inhibition is 35.4%.

For `O=C1C(Nc2cccc(O)c2)=C(N2CCCCC2)C(=O)c2ccccc21`, the inhibition worked out at 35.8%.

With `O=C(c1cccs1)N1CCN=C1SCc1cccnc1`, the inhibition is -11.7%.

On to `O=C(O)C1OC(Oc2cc3oc(-c4ccccc4)cc(=O)c3c(O)c2O)C(O)C(O)C1O` (stereo not given), for which the inhibition was -26.6%.

On to `CCOC(=O)c1c(C)oc2c1c(C=NCc1ccccn1)c(O)c1ccccc12`, for which the inhibition came to 2.53%.

As to `CN(C1=C(NC(=O)c2ccccc2)C(=O)c2ccccc2C1=O)C1CCS(=O)(=O)C1` (stereo not given), the inhibition worked out at 27%.

`COc1ccccc1-c1c(C)nn2c(N3CCCCCC3)cc(C)nc12`: the inhibition is -1.28%.

As to `CCN(CC)c1ccc(/C=N/Nc2ccccc2)c(O)c1`, the inhibition was -13.5%.

On to `O=C(Nc1nnc(C(F)(F)F)s1)c1ccc(N2C(=O)C3C4C=CC(C4)C3C2=O)cc1` (stereo not given), for which the inhibition was -8.43%.

For `Clc1ccc(C2=CSC3=Nc4cccc5cccc(c45)N23)cc1`, the inhibition turned out to be 13.3%.

Take `CCO/C=C1/C(=O)N(Cc2ccccc2)C(=O)c2ccccc21`: the inhibition amounted to 49.7%.

For the compound `CCCNc1nc2c(c(=O)[nH]c(=O)n2C)n1Cc1ccc(F)cc1`, the inhibition is -11.6%.

Take `O=C(COC(=O)c1ccc([N+](=O)[O-])s1)Nc1ccccc1`: the inhibition was -23.9%.

Take `Nc1nnc2c(n1)CCCC2`: the inhibition amounted to 23%.

Regarding `CCc1cc[n+](C2=C([O-])c3ccccc3C(=O)/C2=N\S(=O)(=O)c2cccs2)cc1`, the inhibition is 2.75%.

As for `CN(C(=O)COc1ccc(C(C)(C)C)cc1)C1CCS(=O)(=O)C1` (stereo not given), the inhibition is -19.1%.

On to `N#Cc1ccccc1Cn1cc(C#N)c2ccccc21`, for which the inhibition was -11.8%.

On to `CCOC(=O)C1=C(C)NC2(O)c3ccccc3C(=O)C12O` (stereo not given), for which the inhibition was 40%.

As to `Cc1onc(-c2ccccc2)c1C(=O)NCc1ccccn1`, the inhibition was -11.6%.

`CCN(CC)CCCNC(=O)Cc1c(C(=O)O)n(C)c2ccccc12`: the inhibition was -8.3%.

For the compound `CCOC(=O)/C(N=Nc1ccc(F)cc1)=C(/O)c1ccc([N+](=O)[O-])cc1`, the inhibition is -5.66%.

As to `Cc1ccc(C(c2sc3nc(C)nn3c2O)N2CCOCC2)cc1` (stereo not given), the inhibition was -10.3%.

In the case of `N[C@@H](C(=O)N[C@@H]1C(=O)N2C(C(=O)O)=C(Cl)CS[C@H]12)c1ccccc1`, the inhibition was -8.78%.

For `CCOC(=O)N1CCN(C(=O)Cn2c(C)cc3ccccc3c2=O)CC1`, the inhibition is -14.1%.

Take `C=CCOC(=O)C1=C(C)NC2(O)c3ccccc3C(=O)C12O` (stereo not given): the inhibition worked out at 24.6%.

On to `COc1ccc(-c2nnc(SCC(=O)c3cccs3)o2)c(OC)c1`, for which the inhibition is -10.6%.

On to `COc1ccc(-n2nc3ccccc3n2)cc1`, for which the inhibition was -5.75%.

As to `O=C(CN1C(=O)C2CC=CCC2C1=O)Nc1nnc(SCc2ccc(Cl)cc2)s1` (stereo not given), the inhibition is -4.26%.

Regarding `c1ccc(-c2csc3ncnc(NCCCN4CCOCC4)c23)cc1`, the inhibition is -1.85%.

Regarding `Cc1noc(NS(=O)(=O)c2ccc(NC(=O)CCCOc3ccc(Cl)cc3Cl)cc2)c1C`, the inhibition was -12.1%.

Consider `Oc1ccc(C=Nc2ccc3ncccc3c2)c(O)c1`, for which the inhibition is -3.62%.

As for `COc1ccc(CCN2C(=O)c3ccncc3C2=O)cc1OC`, the inhibition was 0.113%.

For `CC(C)N(C(=O)COc1ccc(Br)cc1Cl)C(C)C`, the inhibition was -12.6%.

Take `Cc1oc2ccccc2c1-c1cn2c(n1)SCC2`: the inhibition is -2.41%.

As for `CCC(=O)N1Cc2ccccc2-c2ccccc2C1=O`, the inhibition was -4.86%.

As for `COc1ccc(NC2=C(NCCO)C(=O)c3ccccc3C2=O)cc1`, the inhibition turned out to be 20.2%.

Consider `O=C(O[C@@H]1OC2COC(=O)c3cc(O)c(O)c(O)c3-c3c(cc(O)c(O)c3O)C(=O)O[C@@H]([C@H]1O)[C@@H]2O)c1cc(O)c(O)c(O)c1`, for which the inhibition is -0.367%.

In the case of `CC1CCN(CCC(=O)N2CCCc3c2c(=O)oc2ccc(O)cc32)CC1`, the inhibition is -1.24%.

Take `Cc1ccc(CSCCNC(=O)CN2C(=O)c3ccccc3S2(=O)=O)cc1`: the inhibition was -6.7%.

In the case of `COc1ccc(/C=N/NC(=O)C(C)n2cnc3ccccc3c2=O)cc1OC` (stereo not given), the inhibition worked out at 8.51%.

On to `CCN(CC)c1ccc(/C=N/Nc2cccc(C)c2)c(O)c1`, for which the inhibition was found to be 9.95%.

In the case of `Cc1ccc(NC2=C(NCCO)C(=O)c3ccccc3C2=O)cc1`, the inhibition worked out at 7.47%.

Take `CN(CC(=O)N1CCCc2c1c(=O)oc1ccc(O)cc21)Cc1ccccc1`: the inhibition is -1.35%.

In the case of `O=C(c1ccc(F)cc1)[C@@H]1[C@@H](C(=O)c2ccccc2)[C@@]2(C(=O)Nc3ccccc32)[C@H]2c3ccccc3C=CN12`, the inhibition is 13.8%.

For `Cc1ccc(N2C(=O)[C@@H]3[C@H](C2=O)C2c4ccccc4C=CN2[C@@H]3C(=O)c2ccco2)c(C)c1` (stereo not given in full), the inhibition came to 20.7%.

As for `COc1ccc(N2C(=O)[C@@H]3[C@H](C2=O)[C@H]2c4ccccc4C=CN2[C@@H]3C(C)=O)cc1`, the inhibition was -6.89%.

For the compound `O=S(=O)(c1ccc2ccccc2c1)N1CCC(c2nc(-c3ccncc3)no2)CC1`, the inhibition was -14.8%.

Take `C=CCc1cccc2cc(C(=O)Nc3ccc(S(=O)(=O)Nc4nnc(CC)s4)cc3)c(=O)oc12`: the inhibition was determined as 23.8%.

Regarding `O=C(NCc1ccccc1)C1CCCN1S(=O)(=O)c1cccc2cccnc12` (stereo not given), the inhibition was -2.68%.

Regarding `CCN1CCN(CCCOc2ccc(-c3ccccc3)cc2)CC1`, the inhibition was -0.391%.

As for `CSc1nsc(/C=C/Nc2ccc(Cl)cc2)c1C#N`, the inhibition is -6.81%.

Regarding `O=C(/C=C/c1ccc(O)cc1)c1ccc(NC2=C(N3CCCCC3)C(=O)c3ccccc3C2=O)cc1`, the inhibition was 18.9%.

`Cc1ccc(C(=O)N2C(=S)C(c3ccc(F)cc3)=NC23CCN(C)CC3)cc1`: the inhibition was -3.79%.

Regarding `COc1cc(C2C(C(=O)OC(C)C)=C(C)Nc3[nH]c(=O)[nH]c(=O)c32)ccc1O` (stereo not given), the inhibition is 4.55%.

Regarding `C#CCn1cc(C=C2C(=O)c3ccccc3C2=O)c2ccccc21`, the inhibition came to 11.1%.

For the compound `N#Cc1c(N)n(CCNC(=O)c2cccs2)c2nc3ccccc3nc12`, the inhibition is -16.9%.

Take `Cc1csc(N2CCc3ccccc32)n1`: the inhibition was -9.56%.

For `COCCCNC(=O)CCCC(=O)NCCCOC`, the inhibition was -17.3%.

As for `O=c1[nH]c(Nc2ccc(F)cc2)cc2ccccc12`, the inhibition was determined as 28.2%.

Take `CCCCOC(=O)C1=C(C)NC2(O)c3ccccc3C(=O)C12O` (stereo not given): the inhibition worked out at 36.9%.

Regarding `CC(=O)N1C(=O)/C(=C2\SC(=S)N(c3c(C)n(C)n(-c4ccccc4)c3=O)C2=O)c2ccccc21`, the inhibition turned out to be 4.95%.

Consider `Cc1ccc2c(C)[nH]c(=O)cc2c1`, for which the inhibition was determined as 0.968%.

Consider `CCOc1ccc(-c2nnc3ccc(SCC(=O)Nc4nc5ccccc5s4)nn23)cc1`, for which the inhibition is -11.8%.

As for `COc1ccc2c(c1)c(=O)cc(C)n2CC(=O)NCc1ccco1`, the inhibition is -3.64%.

Regarding `O=C1c2ccccc2C(=O)C12OC2c1cccc2ccccc12` (stereo not given), the inhibition stood at 80.3%.

Regarding `CC(=O)OCCCNc1cc(SCc2ccco2)c2nonc2c1[N+](=O)[O-]`, the inhibition is -2.61%.

Turning to `Cc1ccc(S(=O)(=O)N2CCCC(C(=O)NCc3ccco3)C2)cc1Cl` (stereo not given), the inhibition stood at 12.9%.

`O=C1CCC(=O)N1CC(=O)N1c2ccccc2Sc2ccccc21`: the inhibition is -12.5%.

Consider `CCOC(=O)C(NC(=O)Nc1ccccc1)(OCC)C(F)(F)F` (stereo not given), for which the inhibition is 2.58%.

Consider `CCOc1cc(CNc2ccc(N3CCCC3)cc2)cc(Cl)c1OC`, for which the inhibition is -6.54%.

Take `COc1ccc(CN2C(=O)c3ccccc3C(/C=N\OCc3ccc(F)cc3)C2=O)cc1` (stereo not given): the inhibition was 3.35%.

`[O-]/[N+](=C\c1ccc(F)cc1)c1ccccc1`: the inhibition was found to be 2.44%.

Take `CCn1c(-c2cc(OC)c(OC)c(OC)c2)n[nH]c1=S`: the inhibition was -24%.

With `O=C1CC(N(O)c2ccccc2)C(=O)N1Cc1ccccc1` (stereo not given), the inhibition was -4.47%.

On to `O=C(c1ccco1)N1CCN(CC(=O)N2CCCc3c2c(=O)oc2ccc(O)cc32)CC1`, for which the inhibition is -5.68%.

Regarding `CCOC(=O)c1oc2ccc(Br)cc2c1CSc1nnc(C)s1`, the inhibition is -12.1%.
